Test results from patent US6433220B1 (RPC Inc., priority 1998, dated 2002).
Where two headings read alike, the source gives them in different places.

Legend:
[1] = cited from earlier work
[2] = cited from earlier work; for EN (normalized solvent polarity parameter): water and tetramethylsilane as extreme reference solvents; for ET (solvent polarity parameter): solvatochromic absorption of betaine dye
[3] = Solubility of cobalt ion in the combination solvent; type: physicochemical; conditions: cyclohexanone/water combination solvent
Description: The above profound and unexpected attributes (considerable increase of dibasic acid solubility combined with considerable decrease of cobalt ion solubility in the novel combination solvent) are primarily responsible for a clean extraction of the cobalt ion with water from the rest of the reaction mixture, which remains dissolved in the combination solvent of the instant invention.

O=C1CCCCC1 [Cyclohexanone]
mol % CHxO (solubility of cyclohexanone in water) ([1]; 20 °C): 1.98% mol % | wt % CHxO (solubility of cyclohexanone in water) ([1]; 20 °C): 10.00% wt % | mol % CHxO (solubility of cyclohexanone in water) ([1]; 25 °C): 1.85% mol % | wt % CHxO (solubility of cyclohexanone in water) ([1]; 25 °C): 9.39% wt % | mol % CHxO (solubility of cyclohexanone in water) ([1]; 30 °C): 1.73% mol % | wt % CHxO (solubility of cyclohexanone in water) ([1]; 30 °C): 8.83% wt % | mol % CHxO (solubility of cyclohexanone in water) ([1]; 50 °C): 1.43% mol % | wt % CHxO (solubility of cyclohexanone in water) ([1]; 50 °C): 7.39% wt % | mol % CHxO (solubility of cyclohexanone in water) ([1]; 70 °C): 1.34% mol % | wt % CHxO (solubility of cyclohexanone in water) ([1]; 70 °C): 6.95% wt % | mol % CHxO (solubility of cyclohexanone in water) ([1]; 90 °C): 1.44% mol % | wt % CHxO (solubility of cyclohexanone in water) ([1]; 90 °C): 7.44% wt % | EN (normalized solvent polarity parameter) [2]: 0.281

c1ccc(Oc2ccccc2)cc1 [diphenyl ether]
ET (solvent polarity parameter) [2]: 35.3 kcal/mol

cobalt ion
solubility of the cobalt ion in the novel combination solvent [3]: decreases considerably

CCCCCC [n-Hexane]
EN (normalized solvent polarity parameter) [2]: 0.009

CCO [Ethanol]
EN (normalized solvent polarity parameter) [2]: 0.654

O [Water]
ET (solvent polarity parameter) [2]: 63.1 kcal/mol | EN (normalized solvent polarity parameter) [2]: 1.000

C1CCCCC1 [Cyclohexane]
EN (normalized solvent polarity parameter) [2]: 0.006

OC1CCCCC1 [Cyclohexanol]
EN (normalized solvent polarity parameter) [2]: 0.500

CC(=O)O [Acetic acid]
EN (normalized solvent polarity parameter) [2]: 0.648

CO [Methanol]
EN (normalized solvent polarity parameter) [2]: 0.762
